Reference: US12616750B2, “Combination therapy utilizing DNA alkylating agents and ATR inhibitors” (Merck Patent GmbH, priority 2018, dated 2026)
Where two headings read alike, the source gives them in different places.

Tests used:
Assay type in all cases: cell-based
HCC-1954 cells [1] = experiment: Cytotoxicity (cell viability, CellTiter-Glo, 6 d); details: Homo sapiens
Procedure: (§1) Dose-matrix combination assays were performed as described above, but performed in opague 384-well plates (2k viable cells/well). Compounds were added using Tecan D300e liquid. Protein solutions were supplemented with 0.3% Tween-20 (final) and diluted to 1 μM. All wells were normalized to the maximum amount of DMSO (maximum 0.4%) or Tween-20 added. […] Luminescence values were normalized to luminescence of non-treated cells and dose-response was fitted using Smart Fit. Synergy scores were calculated using LOEWE synergy model.
After 6 d of treatment, CellTiter-Glo luminescent assay was performed and the luminescence was read on Envision Reader. The results were analyzed using GeneData Screener as described before.

JIMT-1 cells = experiment: Cytotoxicity (cell viability, CellTiter-Glo, 6 d); details: JIMT-1, agent alone, 384-well format (footnote a)
Procedure: Evaluation was performed using GraphPad Prism version 6.05.
(§2) Dose-matrix combination assays were performed as described above, but performed in opague 384-well plates (2k viable cells/well). Compounds were added using Tecan D300e liquid. Protein solutions were supplemented with 0.3% Tween-20 (final) and diluted to 1 μM. All wells were normalized to the maximum amount of DMSO (maximum 0.4%) or Tween-20 added. Read out of luminescence was performed on Envision 2104 Multilabel Reader (Perkin Elmer) and data were evaluated using Genedata Screener® version 14.0.6-Standard (Genedata AG). Luminescence values were normalized to luminescence of non-treated cells and dose-response was fitted using Smart Fit. Synergy scores were calculated using LOEWE synergy model.

NCI-N87 cells [2] = experiment: Cytotoxicity (cell viability, CellTiter-Glo, 6 d); details: Homo sapiens; NCI-N87, agent alone, 384-well format (footnote a)
Procedure: as §1

MDA-MB-453 cells [3] = experiment: Cytotoxicity (cell viability, CellTiter-Glo, 6 d)
Procedure: as §1

[4] = test system: HCC-1954 cells treated with ATR, CHK1 or non-targeting siRNA; experiment: Cytotoxicity of duocarmycins on siRNA knock-down cells; details: 6 d
Procedure: 0.7*10^6 viable cells were seeded in a T25 flask, 5 mL of medium were added and the cells were incubated at 37° C. and 5% C02 overnight. The transfection was carried out as follows: 2.5 μL Lipofectamine RNAiMAX were diluted with 247.5 μL OptiMEM and a 0.3 μM siRNA (ATR, CHK1 or non-targeting siRNA) solution was prepared in OptiMEM to yield 250 μL final volume. The solutions were mixed and incubated for 20 min at room temperature, followed by the addition of 500 μL cell culture medium. The cell culture medium was removed from the cells, washed with PBS (3×) and the transfection mix was added to the cells. After 4 h incubation at 37° C. and 5% CO2, the transfection mix was removed in vacuo. The cells were washed with medium (3×), 5 mL medium were added and the cells were incubated for 60 h at 37° C. and 5% CO2. Then cells were detached, and seeded into 384-well plates. Then a cytotoxicity assay was performed as described before, but with one compound only
Therefore, HCC-1954 cells were seeded into T25 flasks and left to adhere overnight. Then the cells were washed with PBS, and subsequently ATR, CHK1 and non-targeting siRNA were added. The cells were incubated for 4 h, washed with medium and incubated for 3 d. Cells were detached and seeded into 384-well plates. They were treated with duocarmycins for 6 d. Cell viability was determined via CellTiter-Glo assay kit, and data were evaluated using GraphPad Prism. The knock-down efficiency was evaluated using quantitative PCR.

HCC-1954 cells [5] = experiment: Dose-matrix combination assay (synergy score, Loewe model); details: combination with AZD6738, HCC-1954, 6 d
Procedure: as §1
(§3) The screening of synergistic drug combinations can be accomplished by performing a dose-matrix assay. Therefore, two drugs are serial diluted and mixed at every dose level, yielding a dose-matrix. The drug combination can be additive if the effects of the combination are identical to the added effects of the single agents. However, the effects of the combination might also be stronger than the activity of the single agents. This scenario is termed synergy, whereas weaker combination effects compared to the single agents are termed antagonism. A dose-matrix assay is depicted schematically in FIG. 2 which illustrates the outcomes of a dose-matrix assay: additivity, antagonism and synergy.
(§4) The screening was conducted by serial diluting the duocarmycin derivative DUBA (10) and the DDR inhibitors. […] DUBA was combined in a dose-matrix assay with hycanthone. The cell viability was measured after 6 d of treatment using the CellTiter-Glo assay kit. The signals of the cell viability assay were normalized to untreated cells and fitted. […] By subtracting the modeled data from the fitted data, an excess matrix was generated. The excess matrix can be considered as a visualization of the differences between model and actual data which also highlights spots of either high synergy or antagonism. The quantification of the combination effects, however, was performed by calculating synergy scores. […] Besides synergy score, the potency of the drugs in monotherapy was obtained from these experiments. […] The potency was obtained from this dose-response curve.
(§5) The scattering of S was determined in a sham control experiment to define a cutoff for classifying a combination as truly synergistic or antagonistic. Thus seven different compounds were combined with itself on four different cell lines and the three-σ confidence interval was calculated around the mean of the measurement. […] For the sake of convenience, the cutoff was set to a value of ±1.
(§6) Synergy scores (S) were obtained from the combination experiments that indicated additivity […] if model and actual response were equal. […] The magnitude of the score determined the extent of the combination effects.

MDA-MB-468 cells [6] = experiment: Cytotoxicity (cell viability, CellTiter-Glo, 6 d)
NCI-N87 cells [7] = experiment: Dose-matrix combination assay (synergy score, Loewe model); details: combination with AZD6738; NCI-N87
Procedure: as §2, §3

MDA-MB-453 cells [8] = experiment: as above; details: combination with AZD6738; MDA-MB-453
Procedure: as §2, §3

A431 cells = experiment: Cytotoxicity (cell viability); details: A431 (EGFR ++, MET +), Table 10
Procedure: (§7) Curve-shift assays were conducted as follows: The cell number and viability was determined using ViCell™-XR (Beckman Coulter) and seeded in opague 96-well plate (10k viable cells/well). After seeding, the plate was incubated (37° C., 5% C02) in a humid chamber overnight. Compounds were diluted in the appropriate medium, added to the cells and the plate was incubated (37° C., 5% CO2, 6 d) in a humid chamber. After 30 min equilibration at room temperature, CellTiter-Glo reagent (Promega) was added. After the plate was shaken (3 min, 550 rpm, rt) it was incubated (10 min, rt) and luminescence was read on a synergy 4 plate reader (BioTek). Evaluation was performed using GraphPad Prism version 6.05. Therefor luminescence values were normalized to luminescence values of non-treated cells and dose-response was fitted with 4-point logistic fit.
as §2

A549 cells [9] = experiment: Cytotoxicity (cell viability); details: A549 (EGFR +, MET +), Table 10
Procedure: as §7, §2

MCF7 cells = experiment: Cytotoxicity (cell viability); details: MCF7 (EGFR −, MET −), Table 10
Procedure: as §7, §2

MDA-MB-468 cells [10] = experiment: Dose-matrix combination assay (synergy score, Loewe model); details: combination with AZD6738; MDA-MB-468 (EGFR-positive), 6 d
Procedure: as §1, §3, §4, §5, §6

A549 cells [11] = experiment: as above; details: combination with AZD6738; A549 (EGFR-positive), 6 d
Procedure: as §2, §3

Q: What does the source list for `Cc1cccc2c(O)cc3c(c12)[C@H](CCl)CN3C(=O)c1cn2cc(NC(=O)c3ccc(O)cc3)ccc2n1` [compound 10]?
A: IC50 (HCC-1954 cells [1]; HCC1954, HCC-1954, agent alone, 384-well format (footnote a)): 0.3 ± 0.07 nM; IC50 (HCC-1954 cells [1]; HCC1954, duocarmycin variant alone, HCC-1954, mean ± SD or mean (individual values)): 0.2 ± 0.1 nM; IC50 (JIMT-1 cells; Homo sapiens): 3 ± 2 nM; IC50 (NCI-N87 cells [2]): 1.2 ± 0.5 nM; IC50 (MDA-MB-453 cells [3]; Homo sapiens, MDA-MB-453): 0.3 ± 0.1 nM; IC50 ([4]; Homo sapiens, HCC1954, 144 h, ATR knock-down HCC-1954 cells): 0.25 nM; Synergy score S (HCC-1954 cells [5]): 6.7 (6.3, 7.2) 6.9 ± 0.7; Synergy score S (HCC-1954 cells [5]; listed as DUBA): 6.9±0.7; Synergy score S (HCC-1954 cells [5]; listed as DUBA (10)): 6.9±0.7; IC50 (MDA-MB-468 cells [6]; Homo sapiens, MDA-MB-468): 0.06 ± 0.02 nM; Synergy score S (NCI-N87 cells [7]): 3.1+0.6; Synergy score S (MDA-MB-453 cells [8]): 5.0±0.5

Q: `CN(C)CCOc1ccc2[nH]c(C(=O)N3C[C@@H](CCl)c4c3cc(O)c3ccccc43)cc2c1` [compound 38] was tested. Which IC50 (JIMT-1 cells) did it give?
A: 0.14 nM

Q: What about the IC50 (MDA-MB-453 cells [3]; MDA-MB-453, agent alone, 384-well format (footnote a), read-out: IC50) of the same compound?
A: 0.14 nM

Q: What about the IC50 ([4]; ATR knock-down HCC-1954 cells) of the same compound?
A: 0.014 nM

Q: And the IC50 ([4]; CHK1 knock-down HCC-1954 cells)?
A: 0.133 nM

Q: What about the IC50 (A431 cells) of the same compound?
A: 0.055 ± 0.005 nM

Q: And the IC50 (A549 cells [9])?
A: 0.1 ± 0.1 nM

Q: And the IC50 (MCF7 cells)?
A: 0.164 ± 0.004 nM

Q: And the “Synergy score S” value (MDA-MB-468 cells [10])?
A: 6.0±1.0

Q: And the “Synergy score S” value (HCC-1954 cells [5])?
A: 5.6 ± 1.7 5.1 (4.8, 5.3)

Q: And the “Synergy score S” value (HCC-1954 cells [5]; listed as DDM)?
A: 5.6+1.7

Q: What about the “Synergy score S” value (HCC-1954 cells [5]; listed as DDM (38)) of the same compound?
A: 5.6±1.7

Q: And the IC50 (MDA-MB-468 cells [6]; MDA-MB-468 (EGFR +++, MET +), Table 10, read-out: IC50)?
A: 0.02 ± 0.01 nM

Q: What about the IC50 (MDA-MB-468 cells [6]; MDA-MB-468, agent alone, 384-well format (footnote a), read-out: IC50) of the same compound?
A: 0.02 ± 0.01 nM

Q: What about the “Synergy score S” value (A549 cells [11]) of the same compound?
A: 2.0±1.1
